From patent publication US9113629B2, “4-amino-6-(4-substituted-phenyl)-picolinates and 6-amino-2-(4-substituted-phenyl)-pyrimidine-4-carboxylates and their use as herbicides” (DOW AGROSCIENCES LLC, priority 2013, dated 2015)
Read-outs that look alike come from different tables or passages of the source.

How the values were obtained:
[1] = tested on: Key Broadleaf Weed and Crop Species; assay: Post-emergent Test II herbicidal activity (Table 5); format: in vivo; conditions: post-emergence, 336 h, post-emergent, 14 days after application; for pest or weed control at 70 g/ha: 70 g ai/ha; for pest or weed control at 140 g/ha: 140 g ai/ha
Summary of the method: (§1)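 Test species were raised 7–21 d under greenhouse conditions until reaching the first or second true leaf, sprayed with formulated compound at 187 L/ha, and kept subirrigated to avoid wash-off. Fourteen days later, damage was rated visually on a 0–100% scale against untreated plants.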

[2] = tested on: Key Grass and Sedge Weeds as well as Grass Crops; assay: Post-emergent Test II herbicidal activity (Table 6); format: in vivo; conditions: post-emergence, 336 h; for pest or weed control at 70 g/ha: application rate 70 g ai/ha; for pest or weed control at 140 g/ha: application rate 140 g ai/ha
Summary of the method: as §1

[3] = ABUTH: velvetleaf (Abutilon theophrasti), read-out: Visual Growth Reduction (%) 14 Days After Application ABUTH
[4] = AMARE: redroot pigweed (Amaranthus retroflexus), read-out: Visual Growth Reduction (%) 14 Days After Application AMARE
[5] = BRSNN: oilseed-rape, canola (Brassica napus), read-out: Visual Growth Reduction (%) 14 Days After Application BRSNN
[6] = CHEAL: lambsquarters (Chenopodium album), read-out: Visual Growth Reduction (%) 14 Days After Application CHEAL
[7] = EPHHL: wild poinsettia (Euphorbia heterophylla), read-out: Visual Growth Reduction (%) 14 Days After Application EPHHL
[8] = HELAN: sunflower (Helianthus annuus), read-out: Visual Growth Reduction (%) 14 Days After Application HELAN
[9] = VIOTR: wild pansy (Viola tricolor), read-out: Visual Growth Reduction (%) 14 Days After Application VIOTR
[10] = CYPES: yellow nutsedge (Cyperus esculentus), read-out: Visual Growth Reduction (%) 14 Days After Application, CYPES
[11] = DIGSA: crabgrass (Digitaria sanguinalis), read-out: Visual Growth Reduction (%) 14 Days After Application, DIGSA
[12] = ECHCG: barnyardgrass (Echinochloa crus-galli), read-out: Visual Growth Reduction (%) 14 Days After Application, ECHCG
[13] = ORYSA: rice (Oryza sativa), read-out: Visual Growth Reduction (%) 14 Days After Application, ORYSA
[14] = SETFA: giant foxtail (Setaria faberi), read-out: Visual Growth Reduction (%) 14 Days After Application, SETFA
[15] = SORVU: grain sorghum (Sorghum vulgare), read-out: Visual Growth Reduction (%) 14 Days After Application, SORVU
[16] = TRZSS (wheat, Triticum aestivum), read-out: Visual Growth Reduction (%) 14 Days After Application, TRZSS
[17] = ZEAMX: maize, corn (Zea mays), read-out: Visual Growth Reduction (%) 14 Days After Application, ZEAMX

- melting point: 127.9 to 129.2 °C
Structure (SMILES): COC(=O)c1nc(-c2cc(F)c(C(F)F)cc2F)nc(N)c1OC [Compound 193]
- pest or weed control at 70 g/ha [1, 3]: 60 to 74%
- pest or weed control at 140 g/ha [1, 3]: 75 to 84%
- pest or weed control at 70 g/ha [1, 4]: 75 to 84%
- pest or weed control at 140 g/ha [1, 4]: 95 to 100%
- pest or weed control at 70 g/ha [1, 5]: 60 to 74%
- pest or weed control at 140 g/ha [1, 5]: 60 to 74%
- pest or weed control at 70 g/ha [1, 6]: 85 to 94%
- pest or weed control at 140 g/ha [1, 6]: 95 to 100%
- pest or weed control at 70 g/ha [1, 7]: 85 to 94%
- pest or weed control at 140 g/ha [1, 7]: 95 to 100%
- pest or weed control at 70 g/ha [1, 8]: 60 to 74%
- pest or weed control at 140 g/ha [1, 8]: 75 to 84%
- pest or weed control at 70 g/ha [1, 9]: 0 to 29%
- pest or weed control at 140 g/ha [1, 9]: 30 to 44%
- pest or weed control at 70 g/ha [2, 10]: 30 to 44%
- pest or weed control at 140 g/ha [2, 10]: 45 to 59%
- pest or weed control at 70 g/ha [2, 11]: 0 to 29%
- pest or weed control at 140 g/ha [2, 11]: 0 to 29%
- pest or weed control at 70 g/ha [2, 12]: 0 to 29%
- pest or weed control at 140 g/ha [2, 12]: 0 to 29%
- pest or weed control at 70 g/ha [2, 13]: 0 to 29%
- pest or weed control at 140 g/ha [2, 13]: 0 to 29%
- pest or weed control at 70 g/ha [2, 14]: 0 to 29%
- pest or weed control at 140 g/ha [2, 14]: 45 to 59%
- pest or weed control at 70 g/ha [2, 15]: 0 to 29%
- pest or weed control at 140 g/ha [2, 15]: 45 to 59%
- pest or weed control at 70 g/ha [2, 16]: 0 to 29%
- pest or weed control at 140 g/ha [2, 16]: 30 to 44%
- pest or weed control at 70 g/ha [2, 17]: 0 to 29%
- pest or weed control at 140 g/ha [2, 17]: 0 to 29%
